Data taken from US20140162285A1, “Methods of Modulating Vesicular Trafficking” (The General Hospital Corporation, priority 2009, published 2014).
“Also recorded” adds a separate entry of the source. Peptide text beside a SMILES is read from it. * marks the point of attachment. Biotin = O=C1N[C@H]2[C@H](CS[C@H]2CCCCC(=O)*)N1

What was measured:
[1] = target: T1, GST-ARNO(wt) (Homo sapiens, UniProt Q99418); test: a2N-derived peptide pull-down assay with GST-ARNO(wt); type: binding; parameters: key to interaction with ARNO (asterisk mark in Table 1): The interacting peptides are indicated in bold with an asterisk (*)
T1 construct: i) 1-400aa, full length ARNO(wt); made in house; host or cells: E. coli BL21(DE3)
T1 sequence (Q99418 1-400): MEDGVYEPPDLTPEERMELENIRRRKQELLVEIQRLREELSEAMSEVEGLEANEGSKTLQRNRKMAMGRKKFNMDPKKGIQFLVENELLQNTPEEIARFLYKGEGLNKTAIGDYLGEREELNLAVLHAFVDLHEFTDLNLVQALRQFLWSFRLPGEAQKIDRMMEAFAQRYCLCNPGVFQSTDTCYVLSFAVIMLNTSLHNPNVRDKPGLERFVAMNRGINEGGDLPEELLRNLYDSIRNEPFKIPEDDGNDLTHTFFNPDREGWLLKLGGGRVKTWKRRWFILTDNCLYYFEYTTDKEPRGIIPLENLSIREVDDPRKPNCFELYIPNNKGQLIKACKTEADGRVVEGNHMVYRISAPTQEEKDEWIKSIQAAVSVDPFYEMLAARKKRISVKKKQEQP
Description: FIG. 2A is an image of a Western blot showing the results of an a2N-derived peptide pull-down assay. The indicated a2N-derived peptides were immobilized on streptavidin-beads and incubated with purified recombinant GST-ARNO(wt). Interacting complexes were eluted and analyzed by Western blotting using monoclonal anti-GST antibodies.
FIG. 2B is an image of a Western blot showing the results of a pull-down assay with selected a2N-derived interacting peptides incubated with either GST (negative control) or GST-ARNO(wt). The first two lanes show the patterns obtained when either GST-only (lane 1) or GST-ARNO(wt) (lane 2) were loaded onto the gel.
Peptides were synthesized, purified by HPLC and analyzed by mass spectrometry in the MGH Peptide/Protein Core Facility. All a2N-derived peptides were synthesized with a biotin-tag on the N-terminus for immobilization on streptavidin-agarose beads and with an additional C-terminal cysteine residue for immobilization on beads using sulfhydryl-specific crosslinkers. A peptide corresponding to the PB-domain of ARNO was synthesized containing either a non-phosphorylated or a phosphorylated Ser392 residue. Peptide stock solutions were prepared in DMSO at 5 mM concentration and stored at −20° C. […]

[2] = target: T2, Sec7-domain of ARNO (Homo sapiens, UniProt Q99418); test: a2N-derived peptide pull-down with GST-Sec7 domain; type: binding; conditions: GST-Sec7-6His
T2 construct: iii) 61-252aa, Sec7 domain; GST (N, cleaved yes); made in house; host or cells: E. coli BL21(DE3)
T2 sequence (Q99418 61-252): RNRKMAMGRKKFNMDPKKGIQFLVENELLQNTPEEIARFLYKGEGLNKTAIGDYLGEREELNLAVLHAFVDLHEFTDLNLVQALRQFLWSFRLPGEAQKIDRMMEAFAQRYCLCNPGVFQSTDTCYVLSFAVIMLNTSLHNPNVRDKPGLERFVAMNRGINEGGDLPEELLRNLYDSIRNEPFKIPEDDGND
Description: FIGS. 5A-C are a set of three images of Western blots showing the identification of interaction motif of a2N that is involved in specific binding with the Sec7 domain of ARNO. 5A, The catalytic Sec7 domain of ARNO interacts with two a2N-derived peptides, a2N-01 and a2N-03, in pull-down experiments. The peptide pull-down assay was performed with six a2N-derived interaction peptides immobilized on streptavidin-beads and incubated with purified recombinant GST-only or GST-Sec7 domain. Interacting complexes were eluted and analyzed by Western blotting using monoclonal anti-GST antibodies as described below. The loading controls for GST-only (lane 1) or GST-Sec7 (lane 2) are shown. […] The peptide pull-down assay was performed with peptides a2N-01 and a2N-03 immobilized on streptavidin-beads and incubated with purified recombinant GST-PH domain (5B) or GST-PB domain (5C). Interacting complexes were eluted and analyzed by Western blotting using monoclonal anti-GST antibodies. […]
These a2N-derived peptides were immobilized by an N-terminal biotin-tag, which ensured the same efficiency and equivalent binding to streptavidin-agarose beads. […] After washing beads four times in ice-cold binding buffer, the interacting complexes were eluted by boiling in SDS-PAGE sample buffer for 10 min at 95° C., resolved by SDS-PAGE and analyzed by Western blotting using monoclonal anti-GST antibody.

Compound: CSCC[C@H](NC(=O)CCCC[C@@H]1SC[C@@H]2NC(=O)N[C@@H]21)C(=O)NCC(=O)N[C@@H](CO)C(=O)N[C@@H](CC(C)C)C(=O)N[C@@H](Cc1ccccc1)C(=O)N[C@@H](CCCNC(=N)N)C(=O)N[C@@H](CO)C(=O)N[C@@H](CCC(=O)O)C(=O)N[C@@H](CO)C(=O)N[C@@H](CCSC)C(=O)N[C@@H](CS)C(=O)N[C@@H](CC(C)C)C(=O)N[C@@H](C)C(=O)N[C@@H](CCC(N)=O)C(=O)N[C@@H](CC(C)C)C(=O)N[C@@H](Cc1ccccc1)C(=O)N[C@@H](CC(C)C)C(=O)N[C@@H](CS)C(=O)O [a2N-01, Bio-MGSLFRSE SMCLAQLFL-Cys] (Biotin-MGSLFRSESMCLAQLFLC-OH; N-terminus and C-terminus assumed)
- interaction of a2N-derived peptide with GST-ARNO(wt) in pull-down ([1]; Western blot anti-GST, GST-only as control): specific interaction
- interaction with ARNO (asterisk mark in Table 1) ([1]; biotin-tagged peptides on streptavidin beads): Bio-MGSLFRSE SMCLAQLFL-Cys *
- interaction with Sec7-domain of ARNO [2]: interact; also recorded: specifically interacts
